# Patent US11034661B2, “Substituted N′-hydroxycarbamimidoyl-1,2,5-oxadiazole compounds as indoleamine 2,3-dioxygenase IDO inhibitors” (Merck Sharp & Dohme Corp., priority 2017, dated 2021)
# Assays:
# [1] = target: HIS-tagged IDO1 protein (Homo sapiens (Human), UniProt P14902); test: IDO1 Enzyme Assay; assay type: biochemical; settings: recombinant IDO1 40 nM, tryptophan substrate, fluorescence readout
# Description: Biological Assays IDO1 Enzyme Assay
# (§1) Compounds to be tested were serially diluted in ten 3-fold steps in DMSO starting from 10 mM DMSO stocks. Compound dilutions or DMSO alone were then dispensed from the dilution plate into a Greiner black 384-well assay plate (catalog #781086) using an Echo 555 acoustic liquid handler (Labcyte).
# HIS-tagged IDO1 protein was recombinantly expressed in Escherichia coli using ZYP5052 autoinduction media supplemented with 500 μM delta aminolevulinic acid for 48 hours at 16 degrees Celsius. IDO1 protein was purified using Ni^2+-affinity resin and size exclusion chromatography. Purified protein was then diluted in assay buffer (50 mM Tris pH 7.0, 1% glycerol, 20 μM methylene blue, 0.05% Tween-20, 20 mM sodium ascorbate, 100 units/mL catalase to obtain a final IDO1 concentration of 40 nM. IDO1 solution […] or buffer alone […] was dispensed to wells of the assay plate using a BioRAPTR liquid dispenser (Beckman Coulter). Assay plates containing compound and IDO1 enzyme were incubated at room temperature for 30 minutes. Afterwards, 10 μL of 400 μM tryptophan in assay buffer were added to each well of the assay plate using a BioRAPTR liquid dispenser. Plates were incubated at room temperature for 60 minutes and reactions were quenched by addition of 10 μL of 0.5 M methyl isonipecotate in dimethyl sulfoxide. Plates were sealed and incubated at 37 degrees Celsius for 4 hours or 50 degrees Celsius for 2 hours. The plates are allowed to cool and then centrifuged for 1 minute at 1000×g. The resulting fluorescence was measured in an Envision plate reader (Perkin Elmer) with a 400/25 nm excitation filter and an 510/20 nm emission filter.
# Potencies were calculated by linear least squares fit to the four parameter logistic IC50 equation.
# [2] = target: IDO1 in Hela cells stimulated with IFNγ (Homo sapiens (Human), UniProt P14902); test: IDO1 Cellular Assay in Hela Cells Stimulated with IFNγ; assay type: cell-based; settings: IFNγ 100 ng/mL, about 48 hours, fluorescence readout, read-out: IDO1 HELA Cell Assay, IC50
# Sequence of IDO1 in Hela cells stimulated with IFNγ (P14902 whole entry): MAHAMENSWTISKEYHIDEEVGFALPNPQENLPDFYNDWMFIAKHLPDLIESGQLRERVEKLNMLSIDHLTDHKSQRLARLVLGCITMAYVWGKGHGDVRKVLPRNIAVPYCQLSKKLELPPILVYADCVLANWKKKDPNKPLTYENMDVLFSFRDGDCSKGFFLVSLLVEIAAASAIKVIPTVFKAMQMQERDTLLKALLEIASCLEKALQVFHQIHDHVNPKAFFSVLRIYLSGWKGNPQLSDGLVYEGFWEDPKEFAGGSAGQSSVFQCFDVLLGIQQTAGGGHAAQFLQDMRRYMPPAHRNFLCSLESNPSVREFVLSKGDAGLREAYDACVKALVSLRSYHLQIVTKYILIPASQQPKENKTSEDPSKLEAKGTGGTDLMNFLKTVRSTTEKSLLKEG
# Description: IDO1 Cellular Assay in Hela Cells Stimulated with IFNγ
# Hela cells were cultured in complete Hela culture medium (90% EMEM, 10% heat-inactivated fetal bovine serum) and expanded to about 1×10^9 cells. The cells were then collected and frozen down at 10×10^6 cells/vial in 1 mL frozen medium (90% complete Hela culture medium, 10% DMSO)
# as §1, with “stocks in Echo low volume plate(s).” for “stocks.”, “plate(s)” for “plate”, “into” for “into a”, “#781086, 50 nL/well)” for “#781086)”, “550” for “555”
# Frozen Hela cells were thawed and transferred into Hela assay medium (99% complete Hela culture medium, 1% Pen/Strep) with 20 mL medium/vial of cells. The cells were spun down at 250 g in a table top centrifuge for 5 min and suspended in same volume of Hela assay medium. The cells were then counted and adjusted to a density of 2×10^5 cells/ml in Hela assay medium. Sterile L-tryptophan were added to the cells with final concentration of 300 uM L-tryptophan. A small aliquot (2 mL/plate) of Hela cells were set aside and were not treated with IFNγ, to serve as the Max-E control. The rest of Hela cells were added with sterile IFNγ (Cat #285-IF, R & D systems) with a final concentration of 100 ng/mL.
# Hela cells with and without IFNγ were dispensed to the respective wells of 384-well assay plates containing the compounds. The plates were incubated for about 48 hours at a 37° C., 5% CO2 incubator. Afterwards, 12 μL of 0.5 M methyl isonipecotate in dimethyl sulfoxide were added into each well and the plates were sealed and incubated at 37° C. without CO2 overnight. The plates were centrifuged for 1 min at 200×g. The resulting fluorescence was measured in a Spectramax plate reader (Molecular Devices) with a 400 nm excitation filter and a 510 nm emission filter.
# The fluorescence intensity of each well was corrected for the background observed in wells with non-IFNγ-treated cells and was expressed as a fraction of the intensity observed in wells of IFNγ-treated cells and DMSO only. Potencies were calculated by linear least squares fit to the four parameter logistic IC50 equation.
# Sequence of HIS-tagged IDO1 protein (P14902 whole entry): as above
Structure (SMILES),IC50 [1] [µM],IC50 [2] [µM]
"O=C(COc1nonc1/C(=N/O)N[C@H]1Cc2ccc(F)cc21)N1CC[C@@H](O)C1 [Example 44, N-[(7S)-4-fluorobicyclo[4.2.0]octa-1,3,5-trien-7-yl]-N′-hydroxy-4-{2-[(3R)-3-hydroxypyrrolidin-1-yl]-2-oxoethoxy}-1,2,5-oxadiazole-3-carboximidamide]",0.866,1.31
"O=C(CO)N1CC[C@H](Oc2nonc2/C(=N/O)N[C@H]2Cc3ccc(F)cc32)C1 [Example 25, N-[(7S)-4-fluorobicyclo[4.2.0]octa-1,3,5-trien-7-yl]-N′-hydroxy-4-{[(3S)-1-(hydroxyacetyl)pyrrolidin-3-yl]oxy}-1,2,5-oxadiazole-3-carboximidamide]",1.21,2
"CC(=O)NC(CO)COc1nonc1/C(=N/O)N[C@H]1Cc2ccc(F)cc21 (stereo partly drawn) [Example 39, N-{1-[(4-{N-[(7S)-4-fluorobicyclo[4.2.0]octa-1,3,5-trien-7-yl]-N′-hydroxycarbamimidoyl}-1,2,5-oxadiazol-3-yl)oxy]-3-hydroxypropan-2-yl}acetamide]",0.334,0.446
"O=C(COc1nonc1/C(=N/O)N[C@H]1Cc2ccc(F)cc21)NC[C@@H](O)CO [Example 16, N-[(2R)-2,3-dihydroxypropyl]-2-[(4-{N-[(7S)-4-fluorobicyclo[4.2.0]octa-1,3,5-trien-7-yl]-N′-hydroxycarbamimidoyl}-1,2,5-oxadiazol-3-yl)oxy]acetamide]",0.447,0.509
"NS(=O)(=O)N1CCC(Oc2nonc2/C(=N/O)N[C@H]2Cc3ccc(F)cc32)CC1 [Example 49, N-[(7S)-4-fluorobicyclo[4.2.0]octa-1,3,5-trien-7-yl]-N′-hydroxy-4-[(1-sulfamoylpiperidin-4-yl)oxy]-1,2,5-oxadiazole-3-carboximidamide]",10.7,7.31
"CS(=O)(=O)CCOc1nonc1/C(=N/O)N[C@H]1Cc2ccc(F)cc21 [Example 27, N-[(7S)-4-fluorobicyclo[4.2.0]octa-1,3,5-trien-7-yl]-N′-hydroxy-4-[2-(methylsulfonyl)ethoxy]-1,2,5-oxadiazole-3-carboximidamide]",1.48,1.33
"NS(=O)(=O)NCCOc1nonc1/C(=N/O)N[C@H]1CCc2ccc(F)cc21 [Example 24, N-[(1S)-6-fluoro-2,3-dihydro-1H-inden-1-yl]-N′-hydroxy-4-[2-(sulfamoylamino)ethoxy]-1,2,5-oxadiazole-3-carboximidamide]",0.421,1.3
"O=C(COc1nonc1/C(=N/O)N[C@H]1CCc2ccc(F)cc21)NCCO [Example 13, 2-[(4-{N-[(1S)-6-fluoro-2,3-dihydro-1H-inden-1-yl]-N′-hydroxycarbamimidoyl}-1,2,5-oxadiazol-3-yl)oxy]-N-(2-hydroxyethyl)acetamide]",0.483,0.774
"O=C(CO)N1CCC[C@@H]1COc1nonc1/C(=N/O)N[C@H]1Cc2ccc(F)cc21 [Example 58, N-[(7S)-4-fluorobicyclo[4.2.0]octa-1,3,5-trien-7-yl]-N′-hydroxy-4-{[(2R)-1-(hydroxyacetyl)pyrrolidin-2-yl]methoxy}-1,2,5-oxadiazole-3-carboximidamide]",1.49,1.34
"O/N=C(\N[C@H]1Cc2ccc(F)cc21)c1nonc1OCCn1cnnc1 [Example 28, N-[(7S)-4-fluorobicyclo[4.2.0]octa-1,3,5-trien-7-yl]-N′-hydroxy-4-[2-(4H-1,2,4-triazol-4-yl)ethoxy]-1,2,5-oxadiazole-3-carboximidamide]",0.396,0.561

# Stronger by IC50 [1], values ahead:
IC50 [1] [µM],IC50 [2] [µM],Structure (SMILES)
0.289,0.87,"NS(=O)(=O)CCOc1nonc1/C(=N/O)N[C@H]1Cc2ccc(F)cc21 [Example 34, N-[(7S)-4-fluorobicyclo[4.2.0]octa-1,3,5-trien-7-yl]-N′-hydroxy-4-(2-sulfamoylethoxy)-1,2,5-oxadiazole-3-carboximidamide]"
0.264,0.308,"O=C(NCCOc1nonc1/C(=N/O)N[C@H]1Cc2ccc(F)cc21)c1nc[nH]n1 [Example 22, N-{2-[(4-{N-[(7S)-4-fluorobicyclo[4.2.0]octa-1,3,5-trien-7-yl]-N′-hydroxycarbamimidoyl}-1,2,5-oxadiazol-3-yl)oxy]ethyl}-1H-1,2,4-triazole-3-carboxamide]"
0.224,1.78,"O/N=C(\N[C@H]1Cc2ccc(F)cc21)c1nonc1OC1CNC1 [Example 21, 4-[(azetidin-3-yl)oxy]-N-[(7S)-4-fluorobicyclo[4.2.0]octa-1,3,5-trien-7-yl]-N′-hydroxy-1,2,5-oxadiazole-3-carboximidamide]"
0.186,0.221,"NC(=O)COc1nonc1/C(=N/O)N[C@H]1Cc2ccc(F)cc21 [Example 17, 2-[(4-{N-[(7S)-4-fluorobicyclo[4.2.0]octa-1,3,5-trien-7-yl]-N′-hydroxycarbamimidoyl}-1,2,5-oxadiazol-3-yl)oxy]acetamide]"
0.167,0.287,"CC(C)(O)C(=O)N[C@H]1C[C@@H](Oc2nonc2/C(=N/O)N[C@H]2Cc3ccc(F)cc32)C1 [Example 66, N-((1R,3s)-3-((4-((Z)-N-((S)-4-fluorobicyclo[4.2.0]octa-1(6),2,4-trien-7-yl)-N′-hydroxycarbamimidoyl)-1,2,5-oxadiazol-3-yl)oxy)cyclobutyl)-2-hydroxy-2-methylpropanamide]"
0.167,0.28,"O=C(N[C@H]1C[C@@H](Oc2nonc2/C(=N/O)N[C@H]2Cc3ccc(F)cc32)C1)C1(O)CC1 [Example 65, N-((1R,3s)-3-((4-((Z)-N-((S)-4-fluorobicyclo[4.2.0]octa-1(6),2,4-trien-7-yl)-N′-hydroxycarbamimidoyl)-1,2,5-oxadiazol-3-yl)oxy)cyclobutyl)-1-hydroxycyclopropanecarboxamide]"
0.141,0.181,"COC(=O)NCCOc1nonc1/C(=N/O)N[C@H]1Cc2ccc(F)cc21 [Example 41, methyl {2-[(4-{N-[(7S)-4-fluorobicyclo[4.2.0]octa-1,3,5-trien-7-yl]-N′-hydroxycarbamimidoyl}-1,2,5-oxadiazol-3-yl)oxy]ethyl}carbamate]"
0.11,0.416,"C[C@H](CO)NC(=O)COc1nonc1/C(=N/O)N[C@H]1Cc2ccc(F)cc21 [Example 8, 2-[(4-{N-[(7S)-4-fluorobicyclo[4.2.0]octa-1,3,5-trien-7-yl]-N′-hydroxycarbamimidoyl}-1,2,5-oxadiazol-3-yl)oxy]-N-[(2R)-1-hydroxypropan-2-yl]acetamide]"
0.089,0.099,"C[C@@H](O)C(=O)N1CC(Oc2nonc2/C(=N/O)N[C@H]2Cc3ccc(F)cc32)C1 [Example 61, N-((S)-4-fluorobicyclo[4.2.0]octa-1(6),2,4-trien-7-yl)-N′-hydroxy-4-((1-((R)-2-hydroxypropanoyl)azetidin-3-yl)oxy)-1,2,5-oxadiazole-3-carboximidamide]"
0.02,0.036,"NC(=O)N1CC(Oc2nonc2/C(=N/O)N[C@H]2Cc3ccc(F)cc32)C1 [Example 63, (S,Z)-3-((4-(N-(4-fluorobicyclo[4.2.0]octa-1(6),2,4-trien-7-yl)-N′-hydroxycarbamimidoyl)-1,2,5-oxadiazol-3-yl)oxy)azetidine-1-carboxamide]"
